# Measurements: US6737383B1, “Herbicidal oxadiazolidines” (priority 1999, dated 2004)
# How the values were obtained:
# sugar beet = test: Test B pre/postemergence sugar beet; assay type: in vivo, Beta vulgaris
# Procedure, shortened: (§1)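 Herbicidal effect was estimated by eye on a ten-point control scale after plants spent twelve to sixteen days in a greenhouse following soil or foliar treatment. Foliar sprays targeted plants at one to four leaves; all doses were formulated in a non-phytotoxic solvent with surfactant.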
# wild oat = test: Test B pre/postemergence wild oat; assay type: in vivo, Avena fatua
# Procedure, shortened: as §1
# rice = test: Test B flood test rice; assay type: in vivo, Oryza sativa
# Procedure, shortened: (§2)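 Plants were grown to the 2-leaf stage before treatment with test chemical, then held in a greenhouse for twelve to sixteen days. Injury was visually rated against untreated controls on a 0–10 scale, where 0 is no effect and 10 is complete control.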
# bamyardgrass = test: Test B flood test barnyardgrass; assay type: in vivo, Echinochloa crus-galli
# Procedure, shortened: as §2
# velvetleaf = test: Test B pre/postemergence velvetleaf; assay type: in vivo, Abutilon theophrasti
# Procedure, shortened: as §1
# duck salad = test: Test B flood test duck salad; assay type: in vivo, Heteranthera limosa
# Procedure, shortened: as §2
# crabgrass = test: Test B pre/postemergence crabgrass; assay type: in vivo, Digitaria sanguinalis
# Procedure, shortened: as §1
# corn = test: Test B pre/postemergence corn; assay type: in vivo, Zea mays
# Procedure, shortened: as §1
# cocklebur = test: Test B pre/postemergence cocklebur; assay type: in vivo, Xanthium strumarium
# Procedure, shortened: as §1
# wheat = test: Test B pre/postemergence wheat; assay type: in vivo, Triticum aestivum
# Procedure, shortened: as §1
# pigweed = test: Test B pre/postemergence pigweed; assay type: in vivo, Amaranthus retroflexus
# Procedure, shortened: as §1
# soybean = test: Test B pre/postemergence soybean; assay type: in vivo, Glycine max
# Procedure, shortened: as §1
# purple nutsedge = test: Test B pre/postemergence purple nutsedge; assay type: in vivo, Cyperus rotundus
# Procedure, shortened: as §1
# rape = test: Test B pre/postemergence rape; assay type: in vivo, Brassica napus
# Procedure, shortened: as §1
# giant foxtail = test: Test B pre/postemergence giant foxtail; assay type: in vivo, Setaria faberii
# Procedure, shortened: as §1
# morningglory = test: Test B pre/postemergence morningglory; assay type: in vivo, Ipomoea hederacea
# Procedure, shortened: as §1
# [1] = Postemergence, Rate 125 g/ha, scale 0 to 10, 0 is no effect, 10 is complete control
# [2] = Postemergence, Rate 250 g/ha, scale 0 to 10
# [3] = Preemergence, Rate 62 g/ha, scale of 0 to 10 where 0 is no effect and 10 is complete control
# [4] = Preemergence, Rate 125 g/ha, scale 0 to 10, 0 is no effect, 10 is complete control
# [5] = Preemergence, Rate 250 g/ha, scale 0 to 10, 0 is no effect, 10 is complete control
# [6] = Preemergence, Rate 500 g/ha, scale 0 to 10, 0 is no effect, 10 is complete control
# [7] = Rate 62 g/ha, Postemergence, scale 0 to 10, 0 no effect, 10 complete control
# [8] = Rate 62 g/ha, flood test species, Pre-emergence, visual evaluation after twelve to sixteen days
# [9] = Rate 125 g/ha, under heading Pre-emergence, flood test species, visual evaluation after twelve to sixteen days
# [10] = Rate 250 g/ha, Pre-emergence (flood test species), scale 0 to 10, 0 is no effect, 10 is complete control
# [11] = Rate 500 g/ha, Pre-emergence, flood test species, scale 0 to 10 (0 no effect, 10 complete control)
# [12] = Postemergence, Rate 500 g/ha, scale of 0 to 10 where 0 is no effect and 10 is complete control
structure (smiles),measurement,setting,value
CC(C)N(C(=O)n1oc(=O)n(Cc2cnc(Cl)s2)c1=O)c1ccc(F)cc1 [Compound 482],Sugarbeets plant response rating,sugar beet; [1],0
same,Sugarbeets plant response rating,sugar beet; [2],0
same,"Plant response rating, Sugarbeets",sugar beet; [3],0
same,Sugarbeets plant response rating,sugar beet; [4],0
same,Sugarbeets plant response rating,sugar beet; [5],0
same,Sugarbeets plant response rating,sugar beet; [6],0
same,Sugarbeets plant response rating,sugar beet; [7],0
same,Wild oats plant response rating,wild oat; [1],0
same,Wild oats plant response rating,wild oat; [2],0
same,"Plant response rating, Wild oats",wild oat; [3],0
same,Wild oats plant response rating,wild oat; [4],0
same,Wild oats plant response rating,wild oat; [5],0
same,Wild oats plant response rating,wild oat; [6],3
same,Wild oats plant response rating,wild oat; [7],0
same,"Plant response rating, Rice (0 to 10 scale, 0 is no effect, 10 is complete control)",rice; [8],0
same,"Rice plant response rating (0 to 10 scale, 0 is no effect, 10 is complete control)",rice; [9],0
same,Rice plant response rating,rice; [10],0
same,Rice plant response rating,rice; [11],0
same,"Plant response rating, Barnyardgrass (0 to 10 scale, 0 is no effect, 10 is complete control)",bamyardgrass; [8],0
same,"Barnyardgrass plant response rating (0 to 10 scale, 0 is no effect, 10 is complete control)",bamyardgrass; [9],0
same,Barnyardgrass plant response rating,bamyardgrass; [10],0
same,Barnyardgrass plant response rating,bamyardgrass; [11],0
same,Velvetleaf plant response rating,velvetleaf; [1],0
same,Velvetleaf plant response rating,velvetleaf; [2],0
same,"Plant response rating, Velvetleaf",velvetleaf; [3],0
same,Velvetleaf plant response rating,velvetleaf; [4],0
same,Velvetleaf plant response rating,velvetleaf; [5],0
same,Velvetleaf plant response rating,velvetleaf; [6],2
same,Velvetleaf plant response rating,velvetleaf; [7],0
same,"Plant response rating, Ducksalad (0 to 10 scale, 0 is no effect, 10 is complete control)",duck salad; [8],0
same,"Ducksalad plant response rating (0 to 10 scale, 0 is no effect, 10 is complete control)",duck salad; [9],0
same,Ducksalad plant response rating,duck salad; [10],0
same,Ducksalad plant response rating,duck salad; [11],0
same,Crabgrass plant response rating,crabgrass; [1],0
same,Crabgrass plant response rating,crabgrass; [2],1
same,Crabgrass plant response rating,crabgrass; [12],3
same,"Plant response rating, Crabgrass",crabgrass; [3],3
same,Crabgrass plant response rating,crabgrass; [4],8
same,Crabgrass plant response rating,crabgrass; [5],8
same,Crabgrass plant response rating,crabgrass; [6],8
same,Crabgrass plant response rating,crabgrass; [7],0
same,Corn plant response rating,corn; [1],0
same,Corn plant response rating,corn; [2],0
same,Corn plant response rating,corn; [12],0
same,"Plant response rating, Corn",corn; [3],0
same,Corn plant response rating,corn; [4],0
same,Corn plant response rating,corn; [5],0
same,Corn plant response rating,corn; [6],0
same,Corn plant response rating,corn; [7],0
same,Cocklebur plant response rating,cocklebur; [1],0
same,Cocklebur plant response rating,cocklebur; [2],0
same,Cocklebur plant response rating,cocklebur; [12],0
same,"Plant response rating, Cocklebur",cocklebur; [3],0
same,Cocklebur plant response rating,cocklebur; [4],0
same,Cocklebur plant response rating,cocklebur; [5],0
same,Cocklebur plant response rating,cocklebur; [6],0
same,Cocklebur plant response rating,cocklebur; [7],0
same,Wheat plant response rating,wheat; [1],0
same,Wheat plant response rating,wheat; [2],0
same,"Plant response rating, Wheat",wheat; [3],0
same,Wheat plant response rating,wheat; [4],0
same,Wheat plant response rating,wheat; [5],0
same,Wheat plant response rating,wheat; [6],0
same,Wheat plant response rating,wheat; [7],0
same,Redroot pigweed plant response rating,pigweed; [1],0
same,Redroot pigweed plant response rating,pigweed; [2],2
same,"Plant response rating, Redroot pigweed",pigweed; [3],0
same,Redroot pigweed plant response rating,pigweed; [4],0
same,Redroot pigweed plant response rating,pigweed; [5],0
same,Redroot pigweed plant response rating,pigweed; [6],0
same,Redroot pigweed plant response rating,pigweed; [7],0
same,Soybean plant response rating,soybean; [1],1
same,Soybean plant response rating,soybean; [2],1
same,"Plant response rating, Soybean",soybean; [3],0
same,Soybean plant response rating,soybean; [4],0
same,Soybean plant response rating,soybean; [5],0
same,Soybean plant response rating,soybean; [6],0
same,Soybean plant response rating,soybean; [7],1
same,Nutsedge plant response rating,purple nutsedge; [1],0
same,Nutsedge plant response rating,purple nutsedge; [2],0
same,"Plant response rating, Nutsedge",purple nutsedge; [3],0
same,Nutsedge plant response rating,purple nutsedge; [4],0
same,Nutsedge plant response rating,purple nutsedge; [5],0
same,Nutsedge plant response rating,purple nutsedge; [6],0
same,Nutsedge plant response rating,purple nutsedge; [7],0
same,Rape plant response rating,rape; [1],0
same,Rape plant response rating,rape; [2],0
same,"Plant response rating, Rape",rape; [3],0
same,Rape plant response rating,rape; [4],0
same,Rape plant response rating,rape; [5],0
same,Rape plant response rating,rape; [6],0
same,Rape plant response rating,rape; [7],0
same,Giant foxtail plant response rating,giant foxtail; [1],0
same,Giant foxtail plant response rating,giant foxtail; [2],0
same,Giant foxtail plant response rating,giant foxtail; [12],2
same,"Plant response rating, Giant foxtail",giant foxtail; [3],1
same,Giant foxtail plant response rating,giant foxtail; [4],6
same,Giant foxtail plant response rating,giant foxtail; [5],8
same,Giant foxtail plant response rating,giant foxtail; [6],9
same,Giant foxtail plant response rating,giant foxtail; [7],0
same,Morningglory plant response rating,morningglory; [1],7
same,Morningglory plant response rating,morningglory; [2],8
same,"Plant response rating, Morningglory",morningglory; [3],0
same,Morningglory plant response rating,morningglory; [4],0
same,Morningglory plant response rating,morningglory; [5],0
same,Morningglory plant response rating,morningglory; [6],0
same,Morningglory plant response rating,morningglory; [7],5
